# Test results published in US20230220206A1, “REJUVENATING AGENTS FOR ASPHALT RECYCLING” (BASF SE, priority 2020, published 2023).
# Read-outs that look alike come from different tables or passages of the source.
# How the values were obtained:
# [1] = Softening point ring & ball of rejuvenated bitumen; settings: bitumen 20/30 rejuvenated with 5% of the compound, 180° C., 30 minutes
# [2] = bitumen 20/30 + 5% compound
# [3] = MSCR test, percentage elastic recovery; type: physicochemical; settings: bitumen 20/30 + 5% compound
# [4] = type: physicochemical; settings: aged bitumen 50/70 BP + 5% compound
# [5] = Loss tangent from DSR frequency sweep at 60° C.; type: physicochemical
# From the text: In addition, it could be shown that additives according to the present invention perform most of the times better than the common benchmarks according to the standard testing techniques for the low, mid and high temperature range. What cannot be extracted from these measurements however is an indication of the working mechanism.
# [6] = Force ductility of rejuvenated polymer-modified bitumen; type: physicochemical; settings: Olexobit 45 + 5% compound
# From the text: (§1) Herewith, it will be shown that the positive effects of the here claimed rejuvenating agents can also be applied to PmB, in this case Olexobit 45. Olexobit 45 was therefore rejuvenated according to the procedure of Example 1.
# [7] = Softening point of rejuvenated aged bitumen; type: physicochemical; settings: aged bitumen 50/70 PCK Schwedt + 5% compound
# [8] = Softening point of rejuvenated polymer-modified bitumen; type: physicochemical; settings: Olexobit 45 + 5% compound
# [9] = MSCR elastic recovery of rejuvenated aged bitumen; type: physicochemical; settings: aged bitumen 50/70 PCK Schwedt + 5% compound
# [10] = Ageing index (RTFOT ageing) of rejuvenated polymer-modified bitumen; type: physicochemical; settings: Olexobit 45 + 5% compound; viscosity after ageing divided by viscosity before ageing
# From the text: as §1
# [11] = MSCR elastic recovery of rejuvenated polymer-modified bitumen; type: physicochemical; settings: Olexobit 45 + 5% compound
# [12] = type: physicochemical; settings: bitumen extracted from RAP + 5% compound
# [13] = MSCR elastic recovery of rejuvenated RAP bitumen; type: physicochemical; settings: bitumen extracted from RAP + 5% compound
# [14] = type: physicochemical; settings: Olexobit 45 + 5% compound
# [15] = BBR of rejuvenated polymer-modified bitumen; type: physicochemical; settings: Olexobit 45 + 5% compound
# Protocol: (§2) Different bitumen samples were rejuvenated as in Example 1, and the BBR values S (flexural creep stiffness) and m […] were evaluated at −16° C. The results were compared to the not rejuvenated bitumen sample as well as to the bitumen rejuvenated with the benchmark RheoFalt® HP-AM (Comp. 1.3).
# [16] = Softening point of rejuvenated RAP bitumen; type: physicochemical; settings: bitumen extracted from RAP + 5% compound
# [17] = MSCR elastic recovery of rejuvenated aged bitumen; type: physicochemical; settings: aged bitumen 50/70 BP + 5% compound
# [18] = Softening point of rejuvenated aged bitumen; type: physicochemical; settings: aged bitumen 50/70 BP + 5% compound
# [19] = type: physicochemical; settings: aged bitumen 50/70 PCK Schwedt + 5% compound
# [20] = Low temperature performance, bending beam rheometer (BBR) at −16° C.; type: physicochemical
# Protocol: as §2
# [21] = TD NMR relaxation time measurements (SE-CPMG, multicomponent fitting); type: physicochemical; settings: for 1/<1/T2e>: harmonic average relaxation time of the mobile components
# From the text: TD NMR, also known as NMR relaxometry, is a known NMR technique and relies on measuring the relaxation times of the nuclear spin system instead of frequency-domain spectra. […] Also, sample preparation is much simpler as there are no concerns about sample homogeneity and no solvents are needed.
# Like that, a clear distinction between protons in a solid, amorphous and liquid component can be made with good accuracy.
# Bitumen 20/30 was rejuvenated with some of the here claimed rejuvenating agents according to example 1. The pure bitumen 20/30 as well as the rejuvenated bitumen 20/30 samples were then analyzed by TD NMR. To do so, all samples were heated up to 80° C. to allow filling of the samples into NMR tubes. After that, TD NMR measurements at 30° C., 80° C. and 140° C. were conducted using the SE-CMPG sequence. This sequence consists of a solid echo combined with a so-called CPMG (Carr-Purcell-Meiboom-Gill) train of subsequent spin echoes with alternating phase and is capable of recording the decay of coherence in the transverse nuclear magnetization over about 5 orders of magnitude in time. Depending on the measurement temperature, the experimental data were then fitted with semi-empirically selected multicomponent models involving several Gaussian and exponential components:
# S(t)=[pg1 exp(−(t/T2g1)^2)+pg2 exp(−(t/T2g2)^2)]+pe1 exp(−t/T2e1)[pe2 exp(−t/T2e2)+pe3 exp(−t/T2e3)]
# In order to assess the effect of temperature on the molecular mobility of the bitumen, experiments were conducted at temperatures of 30° C., 80° C. and 140° C., and the following models turned out to provide adequate fits of the respective normalized signal decay curves: • two Gaussians and one exponential at 30° C., • two Gaussians and two exponentials at 80° C., • three exponentials at 140° C.
# From the fitting, different values can be obtained: • The p values (pg1, pg2, pe1, pe2 and pe3), indicating the signal fraction of the individual component scaled in the range from 0 to 1 • The T2 values (T2g1, T2g2, T2e1, T2e2 and T2e3), indicating the relaxation times that correspond to each of the individual components. The longer the relaxation time, the higher the molecular mobility of the respective component • In addition to the values T2e1, T2e2 and T2e3, we also calculated the average relaxation time of the mobile components, 1/<1/T2e>, for the temperatures at which more than one mobile component exist (80 and 140° C.). 1/<1/T2e> Is calculated as the harmonic average of the relaxation times involved:
# [formula] • The type of the component, those being: • g1: the rigid component • g2: the partially mobile component • e1, e2 and e3: mobile components with increasingly high local molecular mobilities
# It is believed that the rigid component g1 is directly correlated with the amount of the asphaltene aggregates. The mobile component(s) on the other hand can be attributed to the maltene phase.
# [22] = labelling of the product itself; — = none; cited from earlier work
# [23] = aged bitumen 50/70 BP + 5% compound, lowest frequency
# [24] = aged bitumen 50/70 PCK Schwedt + 5% compound, lowest frequency
# [25] = bitumen 20/30 + 5% compound, lowest frequency (0.01 rad/s)
# [26] = bitumen extracted from RAP + 5% compound, lowest frequency
# [27] = 30° C., bitumen 20/30 + additive
# [28] = 80° C., bitumen 20/30 + additive
# [29] = 140° C., bitumen 20/30 + additive
# [30] = aged bitumen 50/70 BP + 5% compound
compound,measurement,setting,value
Polyethylenglycol bis glycidylether,SP [° C.] (softening point),[1],57.0 °C
same,η(135° C.) [mPas],[2],"1,000 mPas"
same,MSCR % Rec. (0.1 kPa),[3],16%
same,MSCR % Rec. (1.6 kPa),[3],10%
same,MSCR % Rec. (3.2 kPa),[3],5%
"CC(C)CCCCCCOC(=O)c1ccccc1C(=O)OCCCCCCC(C)C [Palatinol ® DINP, diisononyl phthalate]",SP [° C.] (softening point),[1],52.0 °C
same,η(135° C.) [mPas],[2],950 mPas
same,MSCR % Rec. (0.1 kPa),[3],9%
same,MSCR % Rec. (1.6 kPa),[3],3%
same,MSCR % Rec. (3.2 kPa),[3],1%
"CC(C)CCCCCCOC(=O)C1CCCCC1C(=O)OCCCCCCC(C)C (stereo not drawn) [Hexamoll ® DINCH, diisononyl cyclohexane-1,2-dicarboxylate]",η(135° C.) [mPas],[4],"1,000 mPas"
same,tan δ,[5]; [23],35
same,tan δ,[5]; [24],40
same,tan δ,[5]; [25],45
same,tan δ,[5]; [26],25
same,Force Ductility Fmax [N],[6],12 N
same,Force Ductility W [J/cm^2],[6],1.0 J/cm^2
same,SP [° C.],[7],56.0 °C
same,SP [° C.],[8],49.0 °C
same,SP [° C.] (softening point),[1],52.0 °C
same,η(135° C.) [mPas],[2],950 mPas
same,MSCR % Rec. (0.1 kPa),[9],11%
same,MSCR % Rec. (1.6 kPa),[9],7%
same,MSCR % Rec. (3.2 kPa),[9],3%
same,AI (ageing index),[10],2.1
same,MSCR % Rec. (0.1 kPa),[11]; 0.1 kPa,19%
same,MSCR % Rec. (1.6 kPa),[11]; 1.6 kPa,7%
same,MSCR % Rec. (3.2 kPa),[11]; 3.2 kPa,4%
same,η(135° C.) [mPas],[12],"1,200 mPas"
same,MSCR % Rec. (0.1 kPa),[13],16%
same,MSCR % Rec. (1.6 kPa),[13],12%
same,MSCR % Rec. (3.2 kPa),[13],7%
same,η(135° C.) [mPas],[14],700 mPas
same,BBR S-value [MPa],[15],80 MPa
same,BBR m-value,[15],0.43
same,SP [° C.],[16],59.0 °C
same,MSCR % Rec. (0.1 kPa),[17],14%
same,MSCR % Rec. (1.6 kPa),[17],10%
same,MSCR % Rec. (3.2 kPa),[17],5%
same,SP [° C.],[18],56.5 °C
same,MSCR % Rec. (0.1 kPa),[3],10%
same,MSCR % Rec. (1.6 kPa),[3],4%
same,MSCR % Rec. (3.2 kPa),[3],1%
same,η(135° C.) [mPas],[19],"1,000 mPas"
same,S-value [MPa] (flexural creep stiffness),[20]; bitumen 20/30 + 5% compound,90 MPa
same,m-value,[20]; bitumen 20/30 + 5% compound,0.41
CCCCCCCCCCCCN1CCCC1=O [N-Dodecyl pyrrolidone],η(135° C.) [mPas],[4],950 mPas
same,tan δ,[5]; [23],80
same,tan δ,[5]; [24],100
same,tan δ,[5]; [25],80
same,tan δ,[5]; [26],70
same,SP [° C.],[7],50.0 °C
same,SP [° C.] (softening point),[1],47.0 °C
same,η(135° C.) [mPas],[2],800 mPas
same,MSCR % Rec. (0.1 kPa),[9],5%
same,MSCR % Rec. (1.6 kPa),[9],1%
same,MSCR % Rec. (3.2 kPa),[9],0%
same,η(135° C.) [mPas],[12],850 mPas
same,MSCR % Rec. (0.1 kPa),[13],7%
same,MSCR % Rec. (1.6 kPa),[13],3%
same,MSCR % Rec. (3.2 kPa),[13],1%
same,SP [° C.],[16],53.0 °C
same,MSCR % Rec. (0.1 kPa),[17],5%
same,MSCR % Rec. (1.6 kPa),[17],2%
same,MSCR % Rec. (3.2 kPa),[17],0%
same,SP [° C.],[18],51.0 °C
same,MSCR % Rec. (0.1 kPa),[3],4%
same,MSCR % Rec. (1.6 kPa),[3],1%
same,MSCR % Rec. (3.2 kPa),[3],0%
same,η(135° C.) [mPas],[19],700 mPas
same,T2e1,[21]; [27],0.20 ms
same,T2g1,[21]; [27],0.016 ms
same,T2g2,[21]; [27],0.045 ms
same,pe1,"[21]; 30° C., mobile component, bitumen 20/30 + additive",0.44
same,pg2,"[21]; 30° C., partially mobile component, bitumen 20/30 + additive",0.17
same,pg1,"[21]; 30° C., signal fraction of rigid component, bitumen 20/30 + additive",0.38
same,T2e1,[21]; [28],0.50 ms
same,T2e2,[21]; [28],2.53 ms
same,T2g1,[21]; [28],0.017 ms
same,T2g2,[21]; [28],0.054 ms
same,pe1,[21]; [28],0.48
same,pe2,[21]; [28],0.35
same,pg1,[21]; [28],0.09
same,pg2,[21]; [28],0.074
same,1/<1/T2e>,[21]; 80° C.,0.76 ms
same,T2e1,[21]; [29],0.21 ms
same,T2e2,[21]; [29],4.76 ms
same,T2e3,[21]; [29],25.72 ms
same,pe1,[21]; [29],0.18
same,pe2,[21]; [29],0.47
same,pe3,[21]; [29],0.34
same,1/<1/T2e>,[21]; 140° C.,1.0 ms
same,S-value [MPa] (flexural creep stiffness),[20]; [30],90 MPa
same,m-value,[20]; [30],0.43
same,S-value [MPa] (flexural creep stiffness),[20]; bitumen 20/30 + 5% compound,90 MPa
same,m-value,[20]; bitumen 20/30 + 5% compound,0.44
CCCCCCCCCCCCc1ccc(S(=O)(=O)O)cc1 [Dodecylbenzene sulfonic acid],SP [° C.] (softening point),[1],64.0 °C
same,η(135° C.) [mPas],[2],"2,100 mPas"
same,tox (toxicology/eco toxicology),[22],Harmful
same,MSCR % Rec. (0.1 kPa),[3],27%
same,MSCR % Rec. (1.6 kPa),[3],25%
same,MSCR % Rec. (3.2 kPa),[3],21%
Dodecenyl succinic acid anhydride,η(135° C.) [mPas],[2],950 mPas
"CC(COCC1CO1)(COCC1CO1)c1ccccc1 (stereo not drawn) [2-Methyl-2-phenyl-1,3-propandiol bis glycidylether]",SP [° C.] (softening point),[1],52.0 °C
same,η(135° C.) [mPas],[2],900 mPas
same,MSCR % Rec. (0.1 kPa),[3],8%
same,MSCR % Rec. (1.6 kPa),[3],3%
same,MSCR % Rec. (3.2 kPa),[3],1%
CC(C)(COCC1CO1)COCC1CO1 (stereo not drawn) [Neopentylglycol bis glycidylether],SP [° C.] (softening point),[1],52.0 °C
same,η(135° C.) [mPas],[2],"1,050 mPas"
same,tox (toxicology/eco toxicology),[22],Irritating
same,MSCR % Rec. (0.1 kPa),[3],11%
same,MSCR % Rec. (1.6 kPa),[3],5%
same,MSCR % Rec. (3.2 kPa),[3],2%
